Assay results from patent publication US20220259235A1, “EGFR Inhibitor, Composition, and Preparation Method Therefor” (BETTA PHARMACEUTICALS CO., LTD, priority 2019, published 2022).

Key:
[1] = Liver microsomal clearance test, mice; type: in vitro ADME; settings: Mice liver microsomes, 0.5 mg/mL, NADPH
Description: Test 3 Liver Microsomal Clearance Test
1. Prepare 0.5 mg/mL liver microsome diluent containing K-butter and MgCl2:
2.1 Take 356 μL of the liver microsome diluent prepared above and add it to the preset wells of the incubation plate, the number of multiple wells n=1, mark it as the incubation plate.
2.2 Take 4 μL of the positive control compound Verapamil (50 μM) and the working solution of the test compound (200 μM) into the above incubation plate containing 356 μL of liver microsome diluent, and mix well (The dilution solvent from the stock solution to the working solution is a mixed solvent of acetonitrile: methanol: water=1:1:2, and the final concentration of DMSO is ≤0.5%),
2.3 Place the incubation plate in a 37° C. thermostatic oscillator (at shaking speed of 100 rpm) for pre-incubation with 10 min.
2.4 Add 40 μL of 10 mM NADPH (add 40 μL of K-buffer to the wells without NADPH) to each reaction well to start the reaction and start timing.
3. Sample collection and treatment:
3.1 After adding NADPH to start the reaction, immediately take out 50 μL of the sample and add it to the precipitation plate pre-added with 400 μL of stop solution, and shake on an oscillator at 600 rpm for 5 min at room temperature as a 0 min sample.
3.2 At the predetermined time points of 5 min, 15 min and 45 min, take out 50 μL of sample from the incubation plate and add it to the precipitation plate. The subsequent steps were the same as the treatment of 0 min sample. 3.3 After balancing, centrifuge above precipitation plate at 3200 rpm for 10 min at 4° C.
3.4 Take 50 μL of the supernatant after centrifugation and add it to pre-added 20% acetonitrile water at appropriate proportion, shake on an oscillator at 600 rpm for 2 min at room temperature, mix well, and put it into the LC-MS/MS sampler for sample injection.
Analysis of Experimental Data
1. […]

[2] = biological target: EGFR Δ19del/T790M/C797S (Homo sapiens, UniProt P00533, T790M/C797S, form not given); assay: EGFR Δ19del/T790M/C797S kinase test (mobility shift, Caliper EZ Reader); type: biochemical; settings: kinase enzymatic activity, numeric values
EGFR Δ19del/T790M/C797S, sequence (P00533 with tags, fused parts or gaps DEL746-750/T790M/C797S, form open): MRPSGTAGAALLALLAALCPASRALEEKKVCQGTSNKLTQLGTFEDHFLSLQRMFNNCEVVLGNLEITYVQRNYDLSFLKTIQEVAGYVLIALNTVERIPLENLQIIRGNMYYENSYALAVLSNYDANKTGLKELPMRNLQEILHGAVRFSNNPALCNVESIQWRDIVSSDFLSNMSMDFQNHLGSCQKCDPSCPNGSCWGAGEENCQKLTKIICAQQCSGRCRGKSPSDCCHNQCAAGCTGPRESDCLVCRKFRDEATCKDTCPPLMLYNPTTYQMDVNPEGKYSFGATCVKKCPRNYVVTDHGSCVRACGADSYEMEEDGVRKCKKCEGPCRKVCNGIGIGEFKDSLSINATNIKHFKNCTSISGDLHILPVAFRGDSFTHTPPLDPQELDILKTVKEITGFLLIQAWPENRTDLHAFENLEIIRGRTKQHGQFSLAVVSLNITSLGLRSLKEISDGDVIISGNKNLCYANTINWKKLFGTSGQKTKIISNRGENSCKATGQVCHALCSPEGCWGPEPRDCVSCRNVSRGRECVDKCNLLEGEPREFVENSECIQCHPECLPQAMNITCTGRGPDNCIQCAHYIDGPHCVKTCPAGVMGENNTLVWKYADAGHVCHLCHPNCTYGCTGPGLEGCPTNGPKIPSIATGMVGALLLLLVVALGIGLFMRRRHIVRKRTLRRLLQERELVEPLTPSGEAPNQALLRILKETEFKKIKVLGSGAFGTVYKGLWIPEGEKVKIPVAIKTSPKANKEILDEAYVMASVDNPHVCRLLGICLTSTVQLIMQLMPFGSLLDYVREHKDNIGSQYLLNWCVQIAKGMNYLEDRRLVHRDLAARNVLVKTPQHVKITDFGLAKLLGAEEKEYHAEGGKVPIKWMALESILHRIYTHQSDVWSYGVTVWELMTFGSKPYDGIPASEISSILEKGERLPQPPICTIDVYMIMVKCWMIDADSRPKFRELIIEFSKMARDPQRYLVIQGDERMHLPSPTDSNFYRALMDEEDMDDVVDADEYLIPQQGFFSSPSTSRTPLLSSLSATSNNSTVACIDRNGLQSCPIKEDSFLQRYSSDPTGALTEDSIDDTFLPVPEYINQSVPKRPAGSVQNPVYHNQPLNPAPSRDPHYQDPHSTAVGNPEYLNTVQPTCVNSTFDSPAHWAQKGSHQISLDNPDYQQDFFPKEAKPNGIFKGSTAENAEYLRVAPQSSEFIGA
How it was run: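 Mobility-shift assay in which kinase was preincubated 10 min at room temperature with a 10-point, 3-fold compound series starting at 3000 nM or 100 nM. ATP plus substrate then started the reaction at room temperature, and conversion was read on Caliper EZ Reader. IC50 came from a variable-slope fit of % inhibition against positive and negative controls.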

[3] = biological target: T1, hERG protein (Homo sapiens, UniProt Q12809); assay: hERG IC50 test (tracer/membranes fluorescence polarization); type: binding; settings: hERG membranes and tracer, read-out: IC50 results of hERG protein to compound
T1 construct: purchased
T1 sequence (Q12809 whole entry): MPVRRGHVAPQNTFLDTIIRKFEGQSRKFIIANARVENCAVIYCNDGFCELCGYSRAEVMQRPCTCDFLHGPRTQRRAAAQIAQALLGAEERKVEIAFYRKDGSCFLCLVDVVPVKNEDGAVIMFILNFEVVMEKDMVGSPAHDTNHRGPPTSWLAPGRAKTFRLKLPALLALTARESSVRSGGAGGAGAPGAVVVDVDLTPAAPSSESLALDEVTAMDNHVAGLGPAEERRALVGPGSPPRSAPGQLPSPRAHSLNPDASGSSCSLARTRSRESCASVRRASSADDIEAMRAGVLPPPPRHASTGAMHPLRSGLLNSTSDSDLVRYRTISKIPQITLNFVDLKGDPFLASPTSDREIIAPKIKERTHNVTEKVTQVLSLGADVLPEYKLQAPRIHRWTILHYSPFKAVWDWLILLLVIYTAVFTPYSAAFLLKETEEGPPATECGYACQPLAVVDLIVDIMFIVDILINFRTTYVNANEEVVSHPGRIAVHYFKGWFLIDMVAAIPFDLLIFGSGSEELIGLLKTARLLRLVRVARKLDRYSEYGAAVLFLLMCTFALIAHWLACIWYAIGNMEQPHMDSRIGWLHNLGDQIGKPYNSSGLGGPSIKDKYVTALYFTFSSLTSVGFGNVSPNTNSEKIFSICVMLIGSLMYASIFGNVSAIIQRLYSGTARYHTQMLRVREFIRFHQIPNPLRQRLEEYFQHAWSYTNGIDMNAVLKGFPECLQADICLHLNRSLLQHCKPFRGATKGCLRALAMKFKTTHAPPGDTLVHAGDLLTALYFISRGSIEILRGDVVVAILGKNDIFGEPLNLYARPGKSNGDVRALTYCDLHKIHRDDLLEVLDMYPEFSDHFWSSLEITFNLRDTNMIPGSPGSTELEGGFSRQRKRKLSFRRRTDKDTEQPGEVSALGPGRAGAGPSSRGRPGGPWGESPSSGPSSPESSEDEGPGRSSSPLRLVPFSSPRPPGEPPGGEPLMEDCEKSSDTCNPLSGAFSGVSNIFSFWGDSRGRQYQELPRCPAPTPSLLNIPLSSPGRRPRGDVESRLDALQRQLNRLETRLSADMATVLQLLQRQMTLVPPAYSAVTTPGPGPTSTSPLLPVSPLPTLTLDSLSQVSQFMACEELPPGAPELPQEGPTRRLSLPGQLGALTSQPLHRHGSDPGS
Description: 1. Thaw hERG kits (Tracer, E-4031 and Membranes) at room temperature;
2. Add 10 μL of positive compound E-4031 and 10 μL of test compound (10 mM) to 384 well plate (Corning, Art. No. 3658);
3. E-4031 is sequentially 5-fold diluted by pure water (10 concentration points in total), and the test compound is sequentially 5-fold diluted by DMSO (10 concentration points in total).
4. Take 1 μL of all gradient concentrations and add them in parallel to the wells containing 24 μL Assay buffer, and dilute 25 times (take 3 μL of the maximum concentration of E-4031 and add it to 72 μL Assay buffer).
5. Add 10 μL Membranes to another black 384-well plate (Coming, Art.4511).
6. Take 5 μL of 25-fold diluted working solution of positive and test compounds, and add it to above-mentioned plate with 10 μL Membranes, 2 copies at each concentration.
7. Negative control: Add 5 μL Assay buffer to the well with 10 μL Membranes, 8 copies in parallel;
8. Positive control: Add 5 μL E-4031 (120 μM) to the well with 10 μL Membranes, 8 copies in parallel;
9. […]
10. Before measuring the fluorescence polarization, cover the analysis plate to protect the reagents from light and evaporation, and incubate at room temperature (20-25° C.) for 2 hours.
11. Read fluorescence polarization in PerkinElmer EnVision® Multilabel after incubation; […]

COc1cc(N2CCC(N3CCN(C)CC3)CC2)c(-c2cnn(C)c2)cc1Nc1ncc(Cl)c(Nc2ccc3nccnc3c2P(C)(C)=O)n1 [Compound 1, (6-((5-Chloro-2-((2-methoxy-5-(1-methyl-1hydro-pyrazol-4-yl)-4-(4-(4-methylpiperazine-1-yl)piperidin-1-yl)phenyl)amino)pyrimidin-4-yl)amino)quinoxalin-5-yl)dimethylphosphine oxide]
Instrinsic clearance of liver microsomal protein, CLint [1]: 6.6 μL/min/mg proteins | IC50 [2]: 0.3 nM | IC50 [3]: > 30000 nM
